Activity calls are given as the source filed them. The rule behind the calls is not given here.
Columns and labels:
[1] = target: T1, Androgen receptor (Rattus norvegicus) (UniProt P15207); experiment: Relative binding affinity against androgen (AR) receptor of rat after 24 hr incubation as percent binding compared to R1881
T1 sequence (whole entry): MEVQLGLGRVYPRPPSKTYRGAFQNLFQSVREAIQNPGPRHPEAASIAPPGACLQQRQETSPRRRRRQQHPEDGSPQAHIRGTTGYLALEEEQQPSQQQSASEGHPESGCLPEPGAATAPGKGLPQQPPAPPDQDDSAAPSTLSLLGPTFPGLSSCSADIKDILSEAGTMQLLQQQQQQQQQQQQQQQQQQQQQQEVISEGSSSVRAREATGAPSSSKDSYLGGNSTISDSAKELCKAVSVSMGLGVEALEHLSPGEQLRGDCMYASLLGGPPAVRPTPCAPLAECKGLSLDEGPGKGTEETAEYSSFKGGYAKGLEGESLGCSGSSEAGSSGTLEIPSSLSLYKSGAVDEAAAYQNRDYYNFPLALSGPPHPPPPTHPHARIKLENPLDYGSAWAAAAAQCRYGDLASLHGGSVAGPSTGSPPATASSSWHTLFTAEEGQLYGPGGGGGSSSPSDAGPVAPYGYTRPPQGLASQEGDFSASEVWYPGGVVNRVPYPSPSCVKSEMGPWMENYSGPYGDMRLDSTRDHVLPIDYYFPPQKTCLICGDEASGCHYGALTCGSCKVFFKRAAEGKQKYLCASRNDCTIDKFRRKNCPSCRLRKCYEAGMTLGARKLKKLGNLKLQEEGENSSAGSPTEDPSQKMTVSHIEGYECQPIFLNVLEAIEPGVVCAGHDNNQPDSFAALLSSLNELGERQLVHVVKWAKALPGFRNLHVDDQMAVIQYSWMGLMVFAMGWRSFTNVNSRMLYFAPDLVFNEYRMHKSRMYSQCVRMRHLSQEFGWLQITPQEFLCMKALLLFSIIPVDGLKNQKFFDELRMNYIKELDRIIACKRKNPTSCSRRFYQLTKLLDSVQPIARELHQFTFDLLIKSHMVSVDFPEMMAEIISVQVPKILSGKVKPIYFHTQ

[2] = target: T2, Glucocorticoid receptor (Rattus norvegicus) (UniProt P06536); experiment: Relative binding affinity against Glucocorticoid receptor of rat after 2 hr incubation as percent binding compared to Dexamethasone
T2 sequence (whole entry): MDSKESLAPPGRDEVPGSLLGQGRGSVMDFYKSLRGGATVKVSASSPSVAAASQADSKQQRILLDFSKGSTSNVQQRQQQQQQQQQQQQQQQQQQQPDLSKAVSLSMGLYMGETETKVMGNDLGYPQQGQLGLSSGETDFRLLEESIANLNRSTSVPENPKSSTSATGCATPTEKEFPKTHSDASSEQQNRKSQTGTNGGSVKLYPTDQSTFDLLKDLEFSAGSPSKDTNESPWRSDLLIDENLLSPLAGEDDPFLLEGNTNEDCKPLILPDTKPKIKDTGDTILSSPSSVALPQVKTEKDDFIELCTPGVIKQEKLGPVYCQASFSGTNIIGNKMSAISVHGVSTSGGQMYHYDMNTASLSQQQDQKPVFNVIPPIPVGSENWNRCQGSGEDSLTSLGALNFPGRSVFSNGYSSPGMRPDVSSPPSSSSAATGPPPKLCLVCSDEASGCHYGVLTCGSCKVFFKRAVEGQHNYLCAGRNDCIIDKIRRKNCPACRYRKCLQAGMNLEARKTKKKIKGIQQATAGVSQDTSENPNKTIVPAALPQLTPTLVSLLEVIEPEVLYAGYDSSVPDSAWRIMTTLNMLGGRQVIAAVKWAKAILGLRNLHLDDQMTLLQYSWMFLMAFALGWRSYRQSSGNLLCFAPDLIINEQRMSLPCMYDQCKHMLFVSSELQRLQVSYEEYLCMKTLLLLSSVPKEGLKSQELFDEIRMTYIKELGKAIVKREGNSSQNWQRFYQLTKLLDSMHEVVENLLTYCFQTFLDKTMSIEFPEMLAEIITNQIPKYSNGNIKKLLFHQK

[3] = target: T1, Androgen receptor (Rattus norvegicus)
Description: Antiandrogenic activity in orchidectomized young male rats after oral administration

[4] = target: T3, Progesterone receptor (Homo sapiens, UniProt P06401); experiment: In vitro antagonist potency in transactivation assay in neuroblastoma cells expressing human PR-B progesterone receptor; type: functional, cell-based
T3 sequence (P06401 whole entry): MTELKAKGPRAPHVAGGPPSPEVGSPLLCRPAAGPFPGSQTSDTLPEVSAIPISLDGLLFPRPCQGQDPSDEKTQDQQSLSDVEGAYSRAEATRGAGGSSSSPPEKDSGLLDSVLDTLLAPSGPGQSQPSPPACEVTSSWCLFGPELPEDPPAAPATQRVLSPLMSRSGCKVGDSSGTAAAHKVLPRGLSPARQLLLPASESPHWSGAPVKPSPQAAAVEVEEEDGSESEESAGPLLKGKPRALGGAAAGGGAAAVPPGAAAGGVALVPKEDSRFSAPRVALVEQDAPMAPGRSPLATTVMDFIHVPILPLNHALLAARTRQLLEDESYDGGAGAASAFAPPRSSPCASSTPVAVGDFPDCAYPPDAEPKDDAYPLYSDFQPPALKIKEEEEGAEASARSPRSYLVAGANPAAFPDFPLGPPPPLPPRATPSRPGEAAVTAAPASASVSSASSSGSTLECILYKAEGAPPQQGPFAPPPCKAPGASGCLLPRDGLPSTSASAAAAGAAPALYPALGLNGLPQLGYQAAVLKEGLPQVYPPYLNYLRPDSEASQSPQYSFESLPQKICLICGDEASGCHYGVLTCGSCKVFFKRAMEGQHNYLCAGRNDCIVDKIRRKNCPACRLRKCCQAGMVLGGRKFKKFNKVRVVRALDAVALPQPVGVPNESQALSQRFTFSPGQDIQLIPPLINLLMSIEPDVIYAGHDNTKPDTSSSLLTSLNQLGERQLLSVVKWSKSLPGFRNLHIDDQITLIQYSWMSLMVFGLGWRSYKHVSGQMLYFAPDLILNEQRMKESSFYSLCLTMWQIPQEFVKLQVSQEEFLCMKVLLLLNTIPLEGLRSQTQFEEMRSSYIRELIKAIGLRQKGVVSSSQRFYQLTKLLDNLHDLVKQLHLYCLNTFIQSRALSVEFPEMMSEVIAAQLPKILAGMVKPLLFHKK

[5] = target: T4, Progesterone receptor (Rattus norvegicus) (UniProt Q63449); experiment: Full abortifacient effect at 0.1 mg/animal/day in pregnant rats; type: functional
T4 sequence (whole entry): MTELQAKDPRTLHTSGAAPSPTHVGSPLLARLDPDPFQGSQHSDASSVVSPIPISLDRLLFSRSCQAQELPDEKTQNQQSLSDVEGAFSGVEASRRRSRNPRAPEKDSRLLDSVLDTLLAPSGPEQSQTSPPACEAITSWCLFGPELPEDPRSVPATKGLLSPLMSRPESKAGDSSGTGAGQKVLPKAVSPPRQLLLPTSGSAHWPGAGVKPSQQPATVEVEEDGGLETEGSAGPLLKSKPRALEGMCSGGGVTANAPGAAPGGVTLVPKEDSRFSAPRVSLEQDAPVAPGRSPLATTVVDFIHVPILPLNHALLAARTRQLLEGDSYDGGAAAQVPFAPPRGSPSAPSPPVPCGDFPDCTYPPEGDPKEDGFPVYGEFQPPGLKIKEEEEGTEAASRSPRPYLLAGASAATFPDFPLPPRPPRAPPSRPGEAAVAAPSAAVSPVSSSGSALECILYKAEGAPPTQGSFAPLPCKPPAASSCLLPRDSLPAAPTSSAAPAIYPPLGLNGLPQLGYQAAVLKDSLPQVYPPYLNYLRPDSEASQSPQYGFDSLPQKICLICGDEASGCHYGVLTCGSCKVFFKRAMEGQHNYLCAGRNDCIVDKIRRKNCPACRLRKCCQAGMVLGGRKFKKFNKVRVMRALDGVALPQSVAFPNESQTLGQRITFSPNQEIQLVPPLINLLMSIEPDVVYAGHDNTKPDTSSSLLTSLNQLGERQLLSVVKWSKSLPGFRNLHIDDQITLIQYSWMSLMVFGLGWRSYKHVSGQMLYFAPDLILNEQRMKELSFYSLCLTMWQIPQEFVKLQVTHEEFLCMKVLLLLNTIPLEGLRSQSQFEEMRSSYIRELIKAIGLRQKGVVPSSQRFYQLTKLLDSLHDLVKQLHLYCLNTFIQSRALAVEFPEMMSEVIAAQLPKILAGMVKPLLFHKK

[6] = organism: Oryctolagus cuniculus; experiment: Relative binding affinity against rabbit progesterone (PR) receptor after 24 hr incubation as perent binding compared to progesterone
[7] = target: T5, Androgen receptor (Homo sapiens, UniProt P10275); experiment: In vitro antagonist potency in transactivation assay in CV-1 cells expressing androgen receptor; type: functional, cell-based
T5 sequence (P10275 whole entry): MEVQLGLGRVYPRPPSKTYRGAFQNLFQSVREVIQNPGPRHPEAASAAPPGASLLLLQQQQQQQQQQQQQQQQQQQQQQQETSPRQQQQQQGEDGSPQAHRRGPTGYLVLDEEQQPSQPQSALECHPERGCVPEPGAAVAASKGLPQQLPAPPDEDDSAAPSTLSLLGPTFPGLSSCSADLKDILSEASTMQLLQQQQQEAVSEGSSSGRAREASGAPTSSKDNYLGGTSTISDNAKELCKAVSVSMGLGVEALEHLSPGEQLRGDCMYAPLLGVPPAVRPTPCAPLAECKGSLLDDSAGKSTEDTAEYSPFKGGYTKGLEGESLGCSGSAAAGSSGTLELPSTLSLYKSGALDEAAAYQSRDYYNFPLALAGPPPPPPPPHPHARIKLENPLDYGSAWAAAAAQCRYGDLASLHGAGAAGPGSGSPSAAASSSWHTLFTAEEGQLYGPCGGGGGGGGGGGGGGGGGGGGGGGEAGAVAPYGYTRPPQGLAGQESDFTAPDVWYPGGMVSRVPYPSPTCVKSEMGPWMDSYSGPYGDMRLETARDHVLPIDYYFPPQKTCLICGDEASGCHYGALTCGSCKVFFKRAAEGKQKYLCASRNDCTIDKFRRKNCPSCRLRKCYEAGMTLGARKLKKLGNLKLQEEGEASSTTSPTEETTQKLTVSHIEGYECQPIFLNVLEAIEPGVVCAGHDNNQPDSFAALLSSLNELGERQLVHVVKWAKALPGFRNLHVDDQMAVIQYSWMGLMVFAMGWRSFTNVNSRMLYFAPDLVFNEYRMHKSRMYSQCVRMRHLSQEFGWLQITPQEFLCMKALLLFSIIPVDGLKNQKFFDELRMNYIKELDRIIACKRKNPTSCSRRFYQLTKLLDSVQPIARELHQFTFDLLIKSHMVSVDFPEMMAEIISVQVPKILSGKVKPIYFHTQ

[8] = target: T4, Progesterone receptor (Rattus norvegicus); experiment: Full abortifacient effect at 0.3 mg/animal/day in pregnant rats; type: functional
[9] = target: T6, Glucocorticoid receptor (Mus musculus, UniProt P06537); experiment: In vitro antagonist potency in transactivation assay in NIH3T3 cells expressing glucocorticoid receptor; type: functional, cell-based
T6 sequence (P06537 whole entry): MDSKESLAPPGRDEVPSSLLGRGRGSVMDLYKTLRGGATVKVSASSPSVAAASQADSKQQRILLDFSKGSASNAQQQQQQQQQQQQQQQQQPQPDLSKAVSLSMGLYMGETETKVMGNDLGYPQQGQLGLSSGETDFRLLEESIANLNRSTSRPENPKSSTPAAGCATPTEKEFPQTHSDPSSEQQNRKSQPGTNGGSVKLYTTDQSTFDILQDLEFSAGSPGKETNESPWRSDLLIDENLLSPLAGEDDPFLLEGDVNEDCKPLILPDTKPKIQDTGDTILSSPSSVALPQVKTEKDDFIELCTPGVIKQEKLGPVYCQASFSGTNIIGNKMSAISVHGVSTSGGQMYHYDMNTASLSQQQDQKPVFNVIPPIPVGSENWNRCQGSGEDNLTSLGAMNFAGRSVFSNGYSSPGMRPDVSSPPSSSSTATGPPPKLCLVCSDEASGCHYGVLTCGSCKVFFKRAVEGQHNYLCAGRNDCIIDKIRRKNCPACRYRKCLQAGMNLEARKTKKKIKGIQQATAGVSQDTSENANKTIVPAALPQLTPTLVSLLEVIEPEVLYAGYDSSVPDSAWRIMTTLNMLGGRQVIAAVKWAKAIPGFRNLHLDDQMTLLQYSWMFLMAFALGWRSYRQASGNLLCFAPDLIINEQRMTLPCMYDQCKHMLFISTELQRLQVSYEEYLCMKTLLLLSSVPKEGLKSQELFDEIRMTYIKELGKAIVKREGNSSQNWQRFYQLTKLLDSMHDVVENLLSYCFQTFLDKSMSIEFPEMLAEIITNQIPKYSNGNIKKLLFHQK

[10] = target: T4, Progesterone receptor (Rattus norvegicus); experiment: Full abortifacient effect at 0.03 mg/animal/day in pregnant rats; type: functional
[11] = target: T4, Progesterone receptor (Rattus norvegicus); experiment: Incomplete abortifacient effect at 0.3 mg/animal/day in pregnant rats; type: functional
[12] = target: T4, Progesterone receptor (Rattus norvegicus); experiment: Incomplete abortifacient effect at 0.03 mg/animal/day in pregnant rats; type: functional
[13] = target: T2, Glucocorticoid receptor (Rattus norvegicus)
Description: Antiglucocorticoid activity in adrenalectomized young male rats after oral administration

[14] = target: T3, Progesterone receptor; experiment: In vitro antagonist potency in transactivation assay in neuroblastoma cells expressing human PR-A progesterone receptor; type: functional, cell-based
[15] = target: T4, Progesterone receptor (Rattus norvegicus); experiment: Incomplete abortifacient effect at 0.1 mg/animal/day in pregnant rats; type: functional
[16] = target: T7, Progesterone receptor (Homo sapiens) (UniProt P06401)
T7 sequence (whole entry): T3 sequence (P06401 whole entry)

[17] = target: T8, Glucocorticoid receptor (Mus musculus) (UniProt P06537); settings: NIH3T3
T8 sequence (whole entry): T6 sequence (P06537 whole entry)
Description: In vitro agonist potency in transactivation assay in NIH3T3 cells expressing glucocorticoid receptor; NE=no effect

[18] = target: T7, Progesterone receptor (Homo sapiens); remark: listed apart in the source
Description: In vitro agonist potency in transactivation assay of neuroblastoma cells expressing human PR-B progesterone receptor; NE=no effect

| RBA [1] [%] | RBA [2] [%] | ED50 mg/animal/day [3] | IC50 [4] [nM] | Abortion [5] [%] | RBA [6] [%] | IC50 [7] [nM] | Abortion [8] [%] | IC50 [9] [nM] | Abortion [10] [%] | Abortion [11] [%] | Abortion [12] [%] | ED50 mg/animal/day [13] | IC50 [14] [nM] | Abortion [15] [%] | NE [16] | NE [17] | NE [18] | SMILES |
| --- | --- | --- | --- | --- | --- | --- | --- | --- | --- | --- | --- | --- | --- | --- | --- | --- | --- | --- |
| 3.1 | 22.2 | 1.3 | 0.0025 | 83 | 140 | 54 | 100 | 16 | 0 | 0 | 0 | 2 | 0.0036 | 17 | – | – | – | CC(=O)c1ccc([C@H]2C[C@@]3(C)[C@@H](CC[C@@]3(O)C(F)(F)C(F)(F)F)[C@@H]3CCC4=CC(=O)CCC4=C32)cc1 [LONAPRISAN] |
| – | – | – | – | – | – | – | – | 2.2 | – | – | – | – | – | – | inactive | inactive | inactive | CC#C[C@]1(O)CC[C@H]2[C@@H]3CCC4=CC(=O)CCC4=C3[C@@H](c3ccc(N(C)C)cc3)C[C@@]21C [MIFEPRISTONE] |

— ChEMBL document CHEMBL1133568 (J Med Chem, 2000)
